Where two headings read alike, the source gives them in different places.
Assays:
[1] = Solubility by w/w % assay of saturated solutions in various solvents; format: physicochemical; settings: saturated solution, 21-23° C.
Protocol: The solubility of fluticasone propionate was measured by w/w % assay of saturated solutions in a variety of solvents at 21-23° C.

[2] = format: physicochemical; settings: for Area %: 100° C. under nitrogen, in water
Protocol: A sample from the above example was heated to 100° C. under nitrogen for 30 hours to examine the stability of the drug under extended distillation times required on scale-up. No new impurities were evident in the area % chromatogram and the assay of the fluticasone propionate appears unaffected by extended periods at 100° C. in water.

[3] = Stability to distillation at atmospheric pressure (HPLC area % profile); format: physicochemical; settings: Example 5
Protocol: In this example, a development of example 4, the distillation was performed at atmospheric pressure and the first distillation was halted when the pot temperature reached 99° C. […] A further 25 volumes of water were added and the distillation continued until 25 volumes of distillate had been removed.

## CCC(=O)O[C@]1(C(=O)SCF)[C@H](C)C[C@H]2[C@@H]3C[C@H](F)C4=CC(=O)C=C[C@]4(C)[C@@]3(F)[C@@H](O)C[C@@]21C [fluticasone propionate]
[1]; Acetone
  w/w % solubility of fluticasone propionate: 5.7 w/w %
[1]; Ethanol
  w/w % solubility of fluticasone propionate: 0.4 w/w %
[1]; Ethyl acetate
  w/w % solubility of fluticasone propionate: 0.2 w/w %
[1]; Isopropanol
  w/w % solubility of fluticasone propionate: 0.3 w/w %
[1]; tBME
  w/w % solubility of fluticasone propionate: 1.2 w/w %
[2]
  Time chemically stable to distillation at 100° C.: at least 30 hours
[2]; 100° C. in water, up to 30 hours, no new impurities in area % chromatogram
  Assay of fluticasone propionate after extended periods at 100° C. in water: unaffected
[2]; Time 0 hr
  Area %: 99.2%
[2]; Time 6 hr
  Area %: 99.4%
[2]; Time 24 hr
  Area %: 99.5%
[2]; Time 30 hr
  Area %: 99.4%
[3]
  Stability to distillation at 100° C. (HPLC area % profile, starting solid to final aqueous slurry): stable
